Assay results published in patent US20030054535A1, “Endoglucanase mutants and mutant hydrolytic depolymerizing enzymes and uses thereof” (priority 1999, published 2003).
Where “and” joins values, the source holds several entries; their conditions need not be identical. Identical values can stand only once.

Tests used:
Format in all cases: biochemical
[1] = target: T1, Acidothermus cellulolyticus EI endoglucanase (Cel5A) catalytic domain, wild type (native), SEQ ID NO:3 of U.S. Pat. No. 5,536,655 (Acidothermus cellulolyticus, UniProt P54583); experiment: Inhibition by cellobiose of hydrolysis of 4-methylumbelliferyl-β-D-cellobioside (MUC), wild type; settings: Ki for inhibition by cellobiose, substrate MUC 4 and 20 μM, 30 min, cellobiose 0 to 5 mM, Dixon plots
T1 construct: the mutant and wild type Cel5A catalytic domains were purified using the purification methods described above; made in house; host or cells: E. coli XL1-blue
T1 sequence (P54583 42-400): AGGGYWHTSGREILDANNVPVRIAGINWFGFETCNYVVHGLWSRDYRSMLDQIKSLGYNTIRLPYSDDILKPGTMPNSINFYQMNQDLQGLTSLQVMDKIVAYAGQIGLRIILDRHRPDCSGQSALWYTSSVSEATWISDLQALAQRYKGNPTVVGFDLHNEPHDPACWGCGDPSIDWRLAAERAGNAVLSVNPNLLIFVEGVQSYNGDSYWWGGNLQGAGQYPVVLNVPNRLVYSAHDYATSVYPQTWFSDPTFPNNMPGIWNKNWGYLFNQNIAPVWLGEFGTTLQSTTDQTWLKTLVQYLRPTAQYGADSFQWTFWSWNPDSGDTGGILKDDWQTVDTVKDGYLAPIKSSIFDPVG
Procedure: (§1) The enzymes (0.682 ng) were incubated for 30 min with the substrate at each of two concentrations (4 and 20 μM), in the presence of D-cellobiose (Sigma, St. Louis) )at concentrations ranging from 0 to 5 mM for the wild type catalytic domain, and from 0 to 50 mM for the Y245G mutant. At the end of the incubation period, the reaction in each 1-mL assay mixture was terminated by addition of 2 mL of 0.5 M sodium carbonate, pH 10.0. The extent of hydrolysis was then determined from the fluorescence of the ionized product, 4-methylumbelliferone, as measured in a SPEX FLUOROLOG spectrofluorometer with excitation wavelength at 380 nm and emission wavelength at 455 nm. These studies established that under these conditions, […]. Inhibition constants were then determined by means of Dixon plots of reciprocal velocity versus inhibitor concentration (Segel, 1975).
(§2) The mutant Cel5A enzyme, Y245G, was generated by PCR mutagenesis, and the mutant and wild type Cel5A catalytic domains were purified using the purification methods described above. […] For this reason, the molar extinction coefficients of the recombinant enzymes were calculated by considering the specific change in amino acid composition.

[2] = target: T2, Acidothermus cellulolyticus EI endoglucanase (Cel5A) catalytic domain variant Y245G, SEQ ID NO:3 (Acidothermus cellulolyticus, UniProt P54583, Y286G); experiment: Inhibition by cellobiose of hydrolysis of 4-methylumbelliferyl-β-D-cellobioside (MUC), Y245G mutant
T2 construct: the mutant and wild type Cel5A catalytic domains were purified using the purification methods described above; made in house; host or cells: E. coli XL1-blue
T2 sequence (P54583 42-399 Y286G): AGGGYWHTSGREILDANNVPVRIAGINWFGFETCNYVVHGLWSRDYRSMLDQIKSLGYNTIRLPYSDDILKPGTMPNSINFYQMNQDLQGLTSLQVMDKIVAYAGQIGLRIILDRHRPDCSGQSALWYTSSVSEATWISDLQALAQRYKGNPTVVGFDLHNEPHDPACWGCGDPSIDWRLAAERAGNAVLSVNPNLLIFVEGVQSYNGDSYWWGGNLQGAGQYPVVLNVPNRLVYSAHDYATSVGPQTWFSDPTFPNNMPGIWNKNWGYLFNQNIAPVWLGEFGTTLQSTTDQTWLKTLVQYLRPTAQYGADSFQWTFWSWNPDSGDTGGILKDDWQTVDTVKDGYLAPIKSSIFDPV
Procedure: as §1, §2

[3] = target: T3, Acidothermus cellulolyticus EI endoglucanase (Cel5A) catalytic domain variant W42R, SEQ ID NO:1 (Acidothermus cellulolyticus, UniProt P54583, W83R); experiment: Michaelis-Menten kinetics of cellotriose hydrolysis (cellobiose release), EIW42R; settings: relative to native enzyme
T3 construct: the protein was genetically truncated near the beginning of the linker peptide; made in house; host or cells: E. coli XL1-blue
T3 sequence (P54583 42-399 W83R): as the sequence (P54583 42-399 Y286G) above, with W42R, G245Y counted along it
Procedure: (§3) Each assay mixture was pre-incubated at 50 degrees C. for 10 min. prior to the addition of 0.00272 micromolar (0. 1092 microgram/mL) enzyme, which was also made up in 5 mM acetate buffer with 10 microgram/mL BSA. The final assay volume was 0.1 mL.
(§4) At set-time intervals, an aliquot of the reaction mixture was pulled and immediately analyzed for the release of cellobiose using a Dionex DX300 chromatography system and a Dionex PAD2 pulsed amperometric detector having a gold working electrode. The response of this detector was optimized for the detection of carbohydrates using a waveform defined by the following time and potential settings: t1=420 msec.; EI=+0.05 V; t2=180 msec.; E2=+0.75 V; t3=360 msec.; and E3=−0.15 V. Separation of the reaction products, from the substrate, was achieved on a Dionex CarboPac PA-1 analytical (4×250 mm) column equipped with CarboPac PA-1 ([…], 500 mM sodium hydroxide eluent, and a flow rate of 1.5 mL/min. The amount of cellobiose present for each time-point-sample was quantified by comparing the area of the cellobiose peak against a linear calibration curve. The kinetic constants were determined with a double-reciprocal-plot, where the reciprocal of the rate of cellobiose produced was plotted as a function of the inverse of the substrate concentration.
(§5) Michaelis-Menten kinetics of the mutant EI enzymes and the native enzyme were determined.

[4] = target: T4, Acidothermus cellulolyticus EI endoglucanase (Cel5A) catalytic domain variant Y82R, SEQ ID NO:2 (Acidothermus cellulolyticus, UniProt P54583, Y123R); experiment: Michaelis-Menten kinetics of cellotriose hydrolysis (cellobiose release), EIY82R; settings: relative to native enzyme
T4 construct: the protein was genetically truncated near the beginning of the linker peptide; made in house; host or cells: E. coli XL1-blue
T4 sequence (P54583 42-399 Y123R): as the sequence (P54583 42-399 Y286G) above, with Y82R, G245Y counted along it
Procedure: as §3, §4, §5

SMILES | Ki [1] | Ki ([2]; Ki for inhibition by cellobiose, substrate MUC 4 and 20 μM, 30 min, cellobiose 0 to 50 mM, Dixon plots) | decrease in apparent binding energy of cellobiose versus native enzyme ([2]; from increase in Ki, Y245G relative to wild type) | Vmax, % higher than that of the native enzyme [3] | Vmax, % higher than that of the native enzyme [4]
OC[C@H]1O[C@@H](O[C@H]2[C@H](O)[C@@H](O)C(O)O[C@@H]2CO)[C@H](O)[C@@H](O)[C@@H]1O (stereo partly drawn) [cellobiose, D-cellobiose] | 1.88 mM and 2 mM | 29.7 mM and 30 mM | 1.7 kcal/mol and ~1.5 kcal/mol | – | –
OC[C@H]1O[C@@H](O[C@H]2[C@H](O)[C@@H](O)[C@H](O[C@H]3[C@H](O)[C@@H](O)C(O)O[C@@H]3CO)O[C@@H]2CO)[C@H](O)[C@@H](O)[C@@H]1O (some centres unmarked) [cellotriose] | – | – | – | about 15% | ~75%
